Laboratory results published in ChEMBL document CHEMBL6071179, “New LsrK Ligands as AI-2 Quorum Sensing Interfering Compounds against Biofilm Formation” (J Med Chem, 2024).
The source made the active and inactive calls. The rule behind the calls is not given here.

target: T1, Autoinducer-2 kinase (Bacteria) (UniProt P77432); experiment: Binding affinity to LSRK (unknown origin) assessed as change in melting temperature at 500 ug/ml by SYPRO orange staining based differential scanning fluorimetry assay; conditions: dose 500.0 µg/ml
T1 sequence (whole entry): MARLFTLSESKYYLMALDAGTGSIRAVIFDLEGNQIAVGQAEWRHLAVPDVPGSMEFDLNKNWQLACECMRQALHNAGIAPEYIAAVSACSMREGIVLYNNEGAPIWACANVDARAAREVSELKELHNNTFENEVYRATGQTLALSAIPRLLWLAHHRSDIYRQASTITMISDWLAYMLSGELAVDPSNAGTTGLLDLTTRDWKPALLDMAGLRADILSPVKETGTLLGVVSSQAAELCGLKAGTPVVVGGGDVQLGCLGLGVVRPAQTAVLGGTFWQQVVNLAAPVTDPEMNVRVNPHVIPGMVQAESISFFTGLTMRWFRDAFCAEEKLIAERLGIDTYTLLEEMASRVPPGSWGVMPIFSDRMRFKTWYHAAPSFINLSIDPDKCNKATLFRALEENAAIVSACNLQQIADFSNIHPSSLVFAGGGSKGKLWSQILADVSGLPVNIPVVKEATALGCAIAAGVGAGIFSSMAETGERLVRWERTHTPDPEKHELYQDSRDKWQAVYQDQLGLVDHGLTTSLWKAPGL

Row | SMILES | ΔTm [°C]
1 | CC1(C)OC[C@H](C(=O)N[C@@H](Cc2ccccc2)C(=O)O)O1 | > 1
2 | CC1(C)OC[C@@H](C(=O)N[C@@H](Cc2ccccc2)C(=O)O)O1 | > 1
3 | O=C(NCCc1ccccc1)C1COC2(CCCCC2)OC1 | > 1
4 | COC(=O)[C@H](C)NC(=O)[C@H](Cc1ccccc1)NC(=O)[C@@H]1COC(C)(C)O1 | > 1

system: Staphylococcus aureus; experiment: Inhibition of Staphylococcus aureus bacterial growth at 500 ug/ml incubated for 20 hrs by microplate reader assay; assay type: functional, organism-based; conditions: dose 500.0 µg/ml

Row | SMILES | inhibition
5 | c1ccc(-c2cc(C3COC4(CCCCC4)O3)[nH]n2)cc1 (stereo not drawn) | inactive
6 | O=C(N[C@@H](Cc1ccccc1)C(=O)O)C1COC2(CCCCC2)O1 (stereo partly drawn) | inactive
7 | CC1(C)OCC(C(=O)N[C@@H](Cc2ccccc2)C(=O)O)O1 (stereo partly drawn) | inactive
8 | Cn1nc(C2COC3(CCCCC3)O2)cc1-c1ccccc1 (stereo not drawn) | inactive
9 | COC(=O)[C@H](C)NC(=O)[C@H](Cc1ccccc1)NC(=O)C1COC(C)(C)O1 (stereo partly drawn) | inactive
10 | O=C(NCCc1ccccc1)C1COC2(CCCCC2)OC1 | inactive

system: Pseudomonas aeruginosa; experiment: Antibiofilm activity against Pseudomonas aeruginosa PAO1 at 500 ug/ml incubated for […] by crystal violet staining based microplate reader assay; assay type: functional; conditions: dose 500 µg/ml

Row | SMILES | MBIC50 [µg/mL]
11 | c1ccc(-c2cc(C3COC4(CCCCC4)O3)[nH]n2)cc1 (stereo not drawn) | 22.5
12 | CC1(C)OC[C@H](C(=O)N[C@@H](Cc2ccccc2)C(=O)O)O1 | 30.4
13 | CC(=O)N[C@@H](CS)C(=O)O [ACETYLCYSTEINE] | 14
14 | CC1(C)OC[C@@H](C(=O)N[C@@H](Cc2ccccc2)C(=O)O)O1 | 34.4
15 | O=C(NCCc1ccccc1)C1COC2(CCCCC2)O1 (stereo not drawn) | 38.3
16 | O=C(N[C@@H](Cc1ccccc1)C(=O)O)C1COC2(CCCCC2)O1 (stereo partly drawn) | 46.2
17 | CC1(C)OCC(C(=O)N[C@@H](Cc2ccccc2)C(=O)O)O1 (stereo partly drawn) | 27.7
18 | COC(=O)[C@H](C)NC(=O)[C@H](Cc1ccccc1)NC(=O)[C@H]1COC(C)(C)O1 | 31.7
19 | COC(=O)[C@H](C)NC(=O)[C@H](Cc1ccccc1)NC(=O)C1OCC2(CCCCC2)CO1 | 483
20 | Cn1nc(C2COC3(CCCCC3)O2)cc1-c1ccccc1 (stereo not drawn) | 373
21 | COC(=O)[C@H](Cc1ccccc1)NC(=O)C1COC2(CCCCC2)O1 (stereo partly drawn) | 60.5
22 | O=C(NCc1ccccc1)C1COC2(CCCCC2)OC1 | 40.8
23 | COC(=O)[C@H](C)NC(=O)[C@H](Cc1ccccc1)NC(=O)C1COC(C)(C)O1 (stereo partly drawn) | 29.1
24 | CC1(C)OCC(C(=O)NCc2ccccc2)O1 (stereo not drawn) | 36.6
25 | O=C(N[C@@H](Cc1ccccc1)C(=O)O)C1COC2(CCCCC2)OC1 | 50
26 | O=C(NCCc1ccccc1)C1COC2(CCCCC2)OC1 | 6.2
27 | COC(=O)[C@H](C)NC(=O)[C@H](Cc1ccccc1)NC(=O)[C@@H]1COC(C)(C)O1 | 25.4

target: T1, Autoinducer-2 kinase (Bacteria); experiment: Binding affinity to LsrK (unknown origin) assessed as reduction in fluorescence intensity at 1 uM by intrinsic tryptophan fluorescence spectroscopy; conditions: not given

Row | SMILES | Flu intensity [%]
28 | CC1(C)OC[C@H](C(=O)N[C@@H](Cc2ccccc2)C(=O)O)O1 | 6
29 | CC1(C)OC[C@@H](C(=O)N[C@@H](Cc2ccccc2)C(=O)O)O1 | 12

target: T1, Autoinducer-2 kinase (Bacteria); experiment: Binding affinity to LsrK (unknown origin) by STD NMR assay; conditions: not given

Row | SMILES | Activity
30 | O=C(NCCc1ccccc1)C1COC2(CCCCC2)OC1 | Active

target: T1, Autoinducer-2 kinase (Bacteria); experiment: Binding affinity to LsrK (unknown origin) assessed as reduction in fluorescence intensity by intrinsic tryptophan fluorescence spectroscopy; conditions: not given

Row | SMILES | Activity
31 | CC1(C)OC[C@H](C(=O)N[C@@H](Cc2ccccc2)C(=O)O)O1 | Dose-Dependent Effect
32 | CC1(C)OC[C@@H](C(=O)N[C@@H](Cc2ccccc2)C(=O)O)O1 | Dose-Dependent Effect
33 | COC(=O)[C@H](C)NC(=O)[C@H](Cc1ccccc1)NC(=O)[C@H]1COC(C)(C)O1 | Dose-Dependent Effect
34 | O=C(NCCc1ccccc1)C1COC2(CCCCC2)OC1 | Dose-Dependent Effect
35 | COC(=O)[C@H](C)NC(=O)[C@H](Cc1ccccc1)NC(=O)[C@@H]1COC(C)(C)O1 | Dose-Dependent Effect

system: Staphylococcus aureus; experiment: Antibiofilm activity against Staphylococcus aureus BHICC at 500 ug/ml incubated for 24 hrs by crystal violet staining based microplate reader assay; assay type: functional; conditions: dose 500 µg/ml

Row | SMILES | MBIC50 [µg/mL]
36 | CCOC(=O)N1CCC(=C2c3ccc(Cl)cc3CCc3cccnc32)CC1 [LORATADINE] | 23
37 | c1ccc(-c2cc(C3COC4(CCCCC4)O3)[nH]n2)cc1 (stereo not drawn) | 45.1
38 | Cn1nc(-c2ccccc2)cc1C1COC2(CCCCC2)O1 (stereo not drawn) | 55.2
39 | CC1(C)OC[C@H](C(=O)N[C@@H](Cc2ccccc2)C(=O)O)O1 | 25.4
40 | CC1(C)OC[C@@H](C(=O)N[C@@H](Cc2ccccc2)C(=O)O)O1 | 26.3
41 | COC(=O)[C@H](Cc1ccccc1)NC(=O)C1COC2(CCCCC2)OC1 | 85.8
42 | O=C(NCCc1ccccc1)C1COC2(CCCCC2)O1 (stereo not drawn) | 92.3
43 | O=C(N[C@@H](Cc1ccccc1)C(=O)O)C1COC2(CCCCC2)O1 (stereo partly drawn) | 61.5
44 | CC1(C)OCC(C(=O)N[C@@H](Cc2ccccc2)C(=O)O)O1 (stereo partly drawn) | 34.6
45 | COC(=O)[C@H](C)NC(=O)[C@H](Cc1ccccc1)NC(=O)[C@H]1COC(C)(C)O1 | 169.7
46 | COC(=O)[C@H](C)NC(=O)[C@H](Cc1ccccc1)NC(=O)C1OCC2(CCCCC2)CO1 | 55.9
47 | Cn1nc(C2COC3(CCCCC3)O2)cc1-c1ccccc1 (stereo not drawn) | 121.4
48 | COC(=O)[C@H](Cc1ccccc1)NC(=O)C1COC2(CCCCC2)O1 (stereo partly drawn) | 71.1
49 | O=C(NCc1ccccc1)C1COC2(CCCCC2)O1 (stereo not drawn) | 1913
50 | COC(=O)[C@H](C)NC(=O)[C@H](Cc1ccccc1)NC(=O)C1COC(C)(C)O1 (stereo partly drawn) | 152.3
51 | O=C(NCc1ccccc1)C(O)CO (stereo not drawn) | 128.2
52 | O=C(N[C@@H](Cc1ccccc1)C(=O)O)C1COC2(CCCCC2)OC1 | 20.6
53 | O=C(NCCc1ccccc1)C1COC2(CCCCC2)OC1 | 16.2
54 | COC(=O)[C@H](Cc1ccccc1)NC(=O)C(O)CO (stereo partly drawn) | 173
55 | COC(=O)[C@H](C)NC(=O)[C@H](Cc1ccccc1)NC(=O)[C@@H]1COC(C)(C)O1 | 82.2

system: Vibrio harveyi; experiment: Inhibition of Vibrio harveyi BB120 bacterial growth at 4 to 500 ug/ml incubated for 24 hrs by resazurin dye based microplate reader assay; assay type: functional, organism-based; conditions: dose 4-500 µg/ml

Row | SMILES | inhibition
56 | CC1(C)OCC(C(=O)N[C@@H](Cc2ccccc2)C(=O)O)O1 (stereo partly drawn) | inactive
57 | COC(=O)[C@H](C)NC(=O)[C@H](Cc1ccccc1)NC(=O)C1COC(C)(C)O1 (stereo partly drawn) | inactive
58 | O=C(NCCc1ccccc1)C1COC2(CCCCC2)OC1 | inactive

system: Pseudomonas aeruginosa; experiment: Inhibition of Pseudomonas aeruginosa bacterial growth at 500 ug/ml incubated for 20 hrs by microplate reader assay; assay type: functional, organism-based; conditions: dose 500.0 µg/ml

Row | SMILES | inhibition
59 | c1ccc(-c2cc(C3COC4(CCCCC4)O3)[nH]n2)cc1 (stereo not drawn) | inactive
60 | O=C(N[C@@H](Cc1ccccc1)C(=O)O)C1COC2(CCCCC2)O1 (stereo partly drawn) | inactive
61 | CC1(C)OCC(C(=O)N[C@@H](Cc2ccccc2)C(=O)O)O1 (stereo partly drawn) | inactive
62 | Cn1nc(C2COC3(CCCCC3)O2)cc1-c1ccccc1 (stereo not drawn) | inactive
63 | COC(=O)[C@H](C)NC(=O)[C@H](Cc1ccccc1)NC(=O)C1COC(C)(C)O1 (stereo partly drawn) | inactive
64 | O=C(NCCc1ccccc1)C1COC2(CCCCC2)OC1 | inactive

target: T1, Autoinducer-2 kinase (Bacteria); experiment: Binding affinity to LSRK (unknown origin) assessed as change in melting temperature at 500 ug/ml in presence of ATP by SYPRO orange staining based differential scanning fluorimetry assay; conditions: dose 500.0 µg/ml

Row | SMILES | ΔTm [°C]
65 | CC1(C)OCC(C(=O)N[C@@H](Cc2ccccc2)C(=O)O)O1 (stereo partly drawn) | > 2
66 | COC(=O)[C@H](C)NC(=O)[C@H](Cc1ccccc1)NC(=O)C1COC(C)(C)O1 (stereo partly drawn) | > 2
67 | O=C(NCCc1ccccc1)C1COC2(CCCCC2)OC1 | > 2

system: Vibrio harveyi; experiment: Inhibition of Vibrio harveyi BB886 bacterial growth at 4 to 500 ug/ml incubated for 24 hrs by resazurin dye based microplate reader assay; assay type: functional, organism-based; conditions: dose 4-500 µg/ml

Row | SMILES | inhibition
68 | CC1(C)OCC(C(=O)N[C@@H](Cc2ccccc2)C(=O)O)O1 (stereo partly drawn) | inactive
69 | COC(=O)[C@H](C)NC(=O)[C@H](Cc1ccccc1)NC(=O)C1COC(C)(C)O1 (stereo partly drawn) | inactive
70 | O=C(NCCc1ccccc1)C1COC2(CCCCC2)OC1 | inactive

target: T1, Autoinducer-2 kinase (Bacteria); experiment: Binding affinity to LsrK (unknown origin) assessed as decrease in ellipticity at 2 to 20 uM by Far-UV CD spectra; conditions: dose 2-20 µM

Row | SMILES | Activity
71 | CC1(C)OC[C@H](C(=O)N[C@@H](Cc2ccccc2)C(=O)O)O1 | Dose-Dependent Effect
72 | CC1(C)OC[C@@H](C(=O)N[C@@H](Cc2ccccc2)C(=O)O)O1 | Dose-Dependent Effect
73 | O=C(NCCc1ccccc1)C1COC2(CCCCC2)OC1 | Dose-Dependent Effect

system: not listed separately; experiment: Inhibition of Vibrio harveyi BB170 AI-2 mediated Quorum sensing system assessed as reduction in bioluminescence incubated for 8 hrs; conditions: not given

Row | SMILES | inhibition | IC50 [nM]
74 | CC1(C)OCC(C(=O)N[C@@H](Cc2ccccc2)C(=O)O)O1 (stereo partly drawn) | Active | 
75 | CCCCCCCN(CCN(CC(=O)O)CC(=O)O)CC(=O)O |  | 400
76 | COC(=O)[C@H](C)NC(=O)[C@H](Cc1ccccc1)NC(=O)C1COC(C)(C)O1 (stereo partly drawn) | Active | 
77 | O=C(NCCc1ccccc1)C1COC2(CCCCC2)OC1 | Active | 

system: not listed separately; experiment: Inhibition of Vibrio harveyi BB886 AI-1 mediated Quorum sensing system assessed as reduction in bioluminescence incubated for 8 hrs; conditions: not given

Row | SMILES | inhibition
78 | CC1(C)OCC(C(=O)N[C@@H](Cc2ccccc2)C(=O)O)O1 (stereo partly drawn) | inactive
79 | COC(=O)[C@H](C)NC(=O)[C@H](Cc1ccccc1)NC(=O)C1COC(C)(C)O1 (stereo partly drawn) | inactive
80 | O=C(NCCc1ccccc1)C1COC2(CCCCC2)OC1 | inactive

system: not listed separately; experiment: Inhibition of Vibrio harveyi BB120 AI-2 mediated Quorum sensing system assessed as reduction in bioluminescence incubated for 8 hrs; conditions: not given

Row | SMILES | inhibition
81 | CC1(C)OCC(C(=O)N[C@@H](Cc2ccccc2)C(=O)O)O1 (stereo partly drawn) | Active
82 | COC(=O)[C@H](C)NC(=O)[C@H](Cc1ccccc1)NC(=O)C1COC(C)(C)O1 (stereo partly drawn) | Active
83 | O=C(NCCc1ccccc1)C1COC2(CCCCC2)OC1 | Active
